We go through four compounds from ChEMBL document CHEMBL1201862, “PubChem BioAssay data set” (2004).

Activity calls are given as the source filed them. Where only a bound is given, the exact number is not on record here.

Series [1] concerns the target G-protein coupled receptor 55 (Homo sapiens, UniProt Q9Y2T6). Kind of series: GPR55 antagonists blocking LPI-driven arrestin recruitment, primary screen, imaging, U2OS, beta-arrestin-GFP, LPI agonist (AID 2013).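 Note: antagonist potency measured as reduced agonist-driven arrestin aggregation.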 In kind it is functional. Background: Activated receptors often draw arrestin, which recruitment assays turn into a signal.
Series [2] concerns the target T1, Cannabinoid receptor 1 (Homo sapiens, UniProt P21554). Kind of series: SAR analysis of antagonists of the Cannabinoid Receptor 1 using an Image-Based Assay - Set 2. [Related pubchem assays (depositor defined):AID2013, AID2026]. In kind it is functional.
The target in series [3] is T2, G-protein coupled receptor 35 (Homo sapiens, UniProt Q9HC97). The series is described as follows: SAR analysis of Antagonists of the GPR35 Receptor using an Image-Based Assay - Set 3. [Related pubchem assays (depositor defined):AID2013, AID2026]. The class given is functional.
The target of series [4] is T3, Cannabinoid receptor 2 (Homo sapiens, UniProt P34972). Kind of series: SAR analysis of agonists of the Cannabinoid Receptor 2 using an Image-Based Assay. [Related pubchem assays (depositor defined):AID2013, AID2026]. In kind it is functional.
For a further series, the target named is T4, Protein RecA (Mycobacterium tuberculosis, UniProt P9WHJ3).
T4 sequence (P9WHJ3 whole entry): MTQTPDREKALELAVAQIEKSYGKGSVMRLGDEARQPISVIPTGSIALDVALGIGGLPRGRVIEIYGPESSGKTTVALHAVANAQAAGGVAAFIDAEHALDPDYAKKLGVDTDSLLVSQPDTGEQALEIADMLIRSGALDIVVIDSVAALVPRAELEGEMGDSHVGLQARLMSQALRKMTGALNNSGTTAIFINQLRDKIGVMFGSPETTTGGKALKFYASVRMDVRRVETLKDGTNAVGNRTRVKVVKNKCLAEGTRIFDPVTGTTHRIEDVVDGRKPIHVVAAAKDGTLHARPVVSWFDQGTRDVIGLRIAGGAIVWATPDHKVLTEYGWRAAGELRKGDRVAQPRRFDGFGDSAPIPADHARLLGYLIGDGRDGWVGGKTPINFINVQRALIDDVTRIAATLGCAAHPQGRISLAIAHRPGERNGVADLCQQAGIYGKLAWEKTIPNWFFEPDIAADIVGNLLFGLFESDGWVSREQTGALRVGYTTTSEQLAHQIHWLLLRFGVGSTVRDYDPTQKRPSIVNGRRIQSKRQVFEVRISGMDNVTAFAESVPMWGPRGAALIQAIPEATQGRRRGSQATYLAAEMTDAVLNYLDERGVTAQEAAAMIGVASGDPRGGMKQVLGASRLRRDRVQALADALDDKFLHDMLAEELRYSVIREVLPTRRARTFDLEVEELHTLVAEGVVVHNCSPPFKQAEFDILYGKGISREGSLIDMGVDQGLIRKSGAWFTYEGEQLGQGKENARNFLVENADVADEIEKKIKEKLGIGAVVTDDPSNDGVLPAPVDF
Kind of series: Fluorescence Cell-Free Homogeneous Dose Retest to Identify Inhibitors of RecA-Intein Splicing Activity. [Related pubchem assays (depositor defined):AID2097, AID2223, AID489010, AID492950]. In kind it is functional.

Series [5] has as its target T5, Replicative DNA helicase DnaB (Mycobacterium tuberculosis, UniProt P9WMR3).
T5 sequence (P9WMR3 whole entry): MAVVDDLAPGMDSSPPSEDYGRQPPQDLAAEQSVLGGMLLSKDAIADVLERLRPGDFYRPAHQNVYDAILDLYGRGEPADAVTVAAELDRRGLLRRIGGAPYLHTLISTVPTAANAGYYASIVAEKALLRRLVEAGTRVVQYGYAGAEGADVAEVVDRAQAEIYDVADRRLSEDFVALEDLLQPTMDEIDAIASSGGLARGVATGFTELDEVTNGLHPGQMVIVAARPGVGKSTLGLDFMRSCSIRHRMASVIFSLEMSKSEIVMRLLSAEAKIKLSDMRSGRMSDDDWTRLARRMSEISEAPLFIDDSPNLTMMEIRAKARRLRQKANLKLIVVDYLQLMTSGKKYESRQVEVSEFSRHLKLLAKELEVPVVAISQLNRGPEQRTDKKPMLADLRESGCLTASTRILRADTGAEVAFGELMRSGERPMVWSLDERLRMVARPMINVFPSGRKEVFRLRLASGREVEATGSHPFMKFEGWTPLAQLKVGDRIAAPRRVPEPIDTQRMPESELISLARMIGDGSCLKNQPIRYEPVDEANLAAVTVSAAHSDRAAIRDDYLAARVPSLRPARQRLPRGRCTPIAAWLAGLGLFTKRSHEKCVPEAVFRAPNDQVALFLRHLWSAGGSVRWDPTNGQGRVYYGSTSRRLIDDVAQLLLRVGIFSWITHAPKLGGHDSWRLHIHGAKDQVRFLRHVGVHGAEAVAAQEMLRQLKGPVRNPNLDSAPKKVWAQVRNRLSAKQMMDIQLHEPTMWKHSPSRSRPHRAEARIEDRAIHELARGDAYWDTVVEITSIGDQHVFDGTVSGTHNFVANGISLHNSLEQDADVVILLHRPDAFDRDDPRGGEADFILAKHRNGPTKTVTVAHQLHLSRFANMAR
Kind of series: DnaB intein splicing inhibitors, dose response, biochemical, cell-free fluorescence (AID 449749). In kind it is functional.

Series [6] concerns the target T2, G-protein coupled receptor 35. Kind of series: SAR analysis of Agonists of the GPR35 Receptor using an Image-Based Assay - Set 2. [Related pubchem assays (depositor defined):AID2013, AID2026]. In kind it is functional.
Series [7] deals with T1, Cannabinoid receptor 1. The series is described as follows: SAR analysis of agonists of the Cannabinoid Receptor 1 using an Image-Based Assay - Set 2. [Related pubchem assays (depositor defined):AID2013, AID2026]. The class given is functional.
Series [8] has as its target T3, Cannabinoid receptor 2. Kind of series: SAR analysis of antagonists of the Cannabinoid Receptor 2 using an Image-Based Assay. [Related pubchem assays (depositor defined):AID2013, AID2026]. In kind it is functional.
The target in series [9] is Lysine-specific demethylase 4C (Homo sapiens, UniProt Q9H3R0). Kind of series: GASC-1 (JMJD2C) histone demethylase inhibitors, dose response, biochemical, DELFIA europium, cherry-picked samples (AID 488835). In kind it is functional.
The target in series [10] is T6, RNA-binding protein pos-1 (Caenorhabditis elegans, UniProt G5EF15).
T6 sequence (G5EF15 whole entry): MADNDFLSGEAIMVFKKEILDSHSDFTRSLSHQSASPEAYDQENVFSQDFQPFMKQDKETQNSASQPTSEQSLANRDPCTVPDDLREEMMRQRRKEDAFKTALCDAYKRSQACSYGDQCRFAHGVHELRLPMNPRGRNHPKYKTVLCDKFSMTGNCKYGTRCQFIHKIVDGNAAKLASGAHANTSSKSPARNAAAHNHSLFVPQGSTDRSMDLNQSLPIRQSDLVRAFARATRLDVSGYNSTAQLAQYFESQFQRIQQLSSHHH
Kind of series: inhibitors of POS-1/mex-3 RNA binding, dose response, biochemical, fluorescence polarization (AID 1964).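 Note: purified POS-1 fused to maltose binding protein made in E. coli; potency of compounds blocking POS-1 binding to fluorescent RNA.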

The target of series [11] is T7, Zinc finger protein mex-5 (Caenorhabditis elegans, UniProt Q9XUB2).
T7 sequence (Q9XUB2 whole entry): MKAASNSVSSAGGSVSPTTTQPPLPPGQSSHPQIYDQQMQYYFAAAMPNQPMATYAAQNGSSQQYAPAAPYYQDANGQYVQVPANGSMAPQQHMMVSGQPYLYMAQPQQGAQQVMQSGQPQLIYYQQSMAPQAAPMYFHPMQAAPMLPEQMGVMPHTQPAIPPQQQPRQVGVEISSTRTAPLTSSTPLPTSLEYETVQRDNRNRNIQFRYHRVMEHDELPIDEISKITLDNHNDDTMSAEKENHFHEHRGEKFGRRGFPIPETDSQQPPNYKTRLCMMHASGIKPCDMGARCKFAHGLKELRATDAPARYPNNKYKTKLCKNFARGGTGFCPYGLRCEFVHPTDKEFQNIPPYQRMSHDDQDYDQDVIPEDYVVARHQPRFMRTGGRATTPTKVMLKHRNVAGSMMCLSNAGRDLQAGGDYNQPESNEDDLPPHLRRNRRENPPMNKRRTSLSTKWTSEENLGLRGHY
The series is described as follows: MEX-5/TCR-2 RNA interaction inhibitors, dose response, biochemical, C. elegans, fluorescence polarization (AID 1960). For orientation: Fluorescence polarisation rises when a labelled molecule tumbles more slowly, as on binding a larger partner.

A further series deals with Cytochrome P450 3A4 (Homo sapiens, UniProt P08684).
The next series concerns the target Cytochrome P450 2C19 (Homo sapiens, UniProt P33261). The series is described as follows: Cytochrome panel assay with activity outcomes. Panel member name: p450-cyp2c19 Compounds with AC50 equal or less than 10 uM are considered active. The class given is functional. Conditions: read-out: AC50.
Series [12] in a line: growth suppression of beta-catenin-knockout colon cells, dose response, cell-based, HCT116, human colon tumor (AID 1045).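 Note: HCT116 colon tumor cells with beta catenin knocked out; cells exposed to compound for 60 hours.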 The class given is functional.
A short description of series [13]: growth suppression of PTEN-null colon cells, dose response, cell-based, HCT116 PTEN knockout (AID 1047).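 Note: HCT116 colon tumor cells with PTEN knocked out; cells exposed to compound for 60 hours before readout; potency for loss of cell viability measured by luminescence.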 In kind it is functional.
The test system of series [14] is Streptococcus sp. 'group A'. The series is described as follows: growth inhibition of control SK(-) GAS strain, dose response, counter-screen for streptokinase expression inhibitor project, luminescence, kanamycin, BacTiterGlo, confirmation (AID 1900). The class given is functional, organism-based. On the technique in general: Counterscreens check selectivity or assay interference.

The next series addresses T8, Streptokinase A (Streptococcus pyogenes serotype M1, UniProt P10520).
T8 sequence (P10520 whole entry): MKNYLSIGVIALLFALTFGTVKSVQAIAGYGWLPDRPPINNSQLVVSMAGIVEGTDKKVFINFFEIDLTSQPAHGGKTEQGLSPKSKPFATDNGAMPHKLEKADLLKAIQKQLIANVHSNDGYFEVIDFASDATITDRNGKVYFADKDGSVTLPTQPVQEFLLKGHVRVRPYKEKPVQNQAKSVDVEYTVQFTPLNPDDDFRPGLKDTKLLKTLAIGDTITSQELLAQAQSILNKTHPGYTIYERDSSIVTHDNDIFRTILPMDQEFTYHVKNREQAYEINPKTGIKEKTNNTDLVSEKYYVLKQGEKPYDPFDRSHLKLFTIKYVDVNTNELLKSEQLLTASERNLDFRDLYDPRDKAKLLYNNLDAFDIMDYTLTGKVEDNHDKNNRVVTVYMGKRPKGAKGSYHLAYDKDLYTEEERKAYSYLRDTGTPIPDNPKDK
Kind of series: S. pyogenes streptokinase expression inhibitors, potency, dose response, plasminogen activation absorbance, OD405 (AID 1914).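 Note: secreted streptokinase activity via plasminogen activation per viability signal from cell pellet.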 The class given is functional, Streptococcus pyogenes M1 GAS.

Another series concerns Streptococcus. Kind of series: Group A Streptococcus viability loss, dose response, counter-screen for streptokinase expression inhibitor project, luminescence, BacTiterGlo (AID 1915).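 Note: potency for reduction of bacterial viability or growth.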 In kind it is functional, organism-based.
In series [15] the target is Sphingosine 1-phosphate receptor 4 (Homo sapiens, UniProt O95977). The series is described as follows: Fluorescence dose response cell-based high throughput screening assay for agonists of the Sphingosine 1-Phosphate Receptor 4 (S1P4). [Related pubchem assays: 1509 (Primary screen.), 1523 (Confirmation screen in triplicates.)]. In kind it is functional.
The target in series [16] is Sphingosine 1-phosphate receptor 1 (Homo sapiens, UniProt P21453). Kind of series: Fluorescence-based counterscreen assay for S1P4 agonists: Cell-based dose response high throughput screening assay to identify agonists of the Sphingosine 1-Phosphate Receptor 1 (S1P1). [Related pubchem assays (depositor defined):AID1509, AID1523, AID1801, AID463107, AID463118, AID463119, AID463122, AID463123, AID463129, AID463225, AID504400, AID504460]. The class given is functional.
Chain of Sphingosine 1-phosphate receptor 1 (P21453 whole entry): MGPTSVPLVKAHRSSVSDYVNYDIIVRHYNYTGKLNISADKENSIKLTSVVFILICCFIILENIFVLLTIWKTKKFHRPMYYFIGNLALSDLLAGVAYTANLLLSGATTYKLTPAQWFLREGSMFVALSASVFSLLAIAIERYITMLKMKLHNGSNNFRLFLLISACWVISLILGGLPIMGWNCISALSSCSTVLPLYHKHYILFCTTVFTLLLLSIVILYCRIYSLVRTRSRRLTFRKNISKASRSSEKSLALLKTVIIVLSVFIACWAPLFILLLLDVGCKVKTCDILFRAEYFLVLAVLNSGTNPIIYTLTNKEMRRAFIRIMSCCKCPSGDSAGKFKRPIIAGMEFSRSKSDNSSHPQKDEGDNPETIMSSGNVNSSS

T2 sequence (Q9HC97 whole entry): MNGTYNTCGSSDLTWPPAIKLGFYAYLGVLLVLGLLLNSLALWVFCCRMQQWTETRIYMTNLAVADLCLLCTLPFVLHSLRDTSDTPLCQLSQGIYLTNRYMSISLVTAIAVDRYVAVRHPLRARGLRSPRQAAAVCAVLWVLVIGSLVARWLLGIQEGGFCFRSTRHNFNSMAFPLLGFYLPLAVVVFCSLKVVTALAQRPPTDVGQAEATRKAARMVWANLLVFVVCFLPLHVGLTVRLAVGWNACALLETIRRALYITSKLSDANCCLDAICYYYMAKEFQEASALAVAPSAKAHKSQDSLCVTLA
T1 sequence (P21554 whole entry): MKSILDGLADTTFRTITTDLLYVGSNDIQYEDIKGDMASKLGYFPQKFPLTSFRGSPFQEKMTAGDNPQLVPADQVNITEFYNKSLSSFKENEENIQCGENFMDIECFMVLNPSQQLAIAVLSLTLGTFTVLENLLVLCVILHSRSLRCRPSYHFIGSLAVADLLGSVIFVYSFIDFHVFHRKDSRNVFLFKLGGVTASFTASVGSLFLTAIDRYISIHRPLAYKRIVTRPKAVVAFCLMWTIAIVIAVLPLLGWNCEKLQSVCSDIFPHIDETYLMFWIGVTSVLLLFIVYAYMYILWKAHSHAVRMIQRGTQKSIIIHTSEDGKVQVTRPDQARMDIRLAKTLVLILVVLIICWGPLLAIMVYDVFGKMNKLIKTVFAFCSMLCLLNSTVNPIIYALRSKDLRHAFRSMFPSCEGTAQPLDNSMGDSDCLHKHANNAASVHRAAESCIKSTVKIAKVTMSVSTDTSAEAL
T3 sequence (P34972 whole entry): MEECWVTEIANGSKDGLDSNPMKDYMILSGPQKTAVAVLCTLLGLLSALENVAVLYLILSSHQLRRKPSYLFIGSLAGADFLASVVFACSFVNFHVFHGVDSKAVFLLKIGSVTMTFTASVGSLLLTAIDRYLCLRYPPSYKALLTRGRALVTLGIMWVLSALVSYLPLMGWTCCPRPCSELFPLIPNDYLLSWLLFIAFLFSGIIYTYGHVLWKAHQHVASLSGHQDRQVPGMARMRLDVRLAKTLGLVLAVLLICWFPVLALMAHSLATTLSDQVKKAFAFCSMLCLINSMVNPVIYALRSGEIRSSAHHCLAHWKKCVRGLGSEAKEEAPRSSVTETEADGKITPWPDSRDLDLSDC
Chain of Cytochrome P450 3A4 (P08684 whole entry): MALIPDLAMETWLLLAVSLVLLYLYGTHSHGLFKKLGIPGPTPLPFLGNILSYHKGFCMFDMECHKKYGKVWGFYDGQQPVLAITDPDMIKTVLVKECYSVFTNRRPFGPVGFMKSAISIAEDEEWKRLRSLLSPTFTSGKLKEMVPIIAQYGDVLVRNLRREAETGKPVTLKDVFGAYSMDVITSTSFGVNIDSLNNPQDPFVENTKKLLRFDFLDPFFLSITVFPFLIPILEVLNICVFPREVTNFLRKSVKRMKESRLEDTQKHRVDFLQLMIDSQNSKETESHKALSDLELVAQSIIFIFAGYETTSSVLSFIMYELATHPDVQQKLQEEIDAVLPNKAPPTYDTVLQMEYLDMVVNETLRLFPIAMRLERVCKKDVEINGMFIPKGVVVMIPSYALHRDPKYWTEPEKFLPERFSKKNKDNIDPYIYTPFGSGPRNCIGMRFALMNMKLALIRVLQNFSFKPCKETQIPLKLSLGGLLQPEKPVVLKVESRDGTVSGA
Chain of Lysine-specific demethylase 4C (Q9H3R0 whole entry): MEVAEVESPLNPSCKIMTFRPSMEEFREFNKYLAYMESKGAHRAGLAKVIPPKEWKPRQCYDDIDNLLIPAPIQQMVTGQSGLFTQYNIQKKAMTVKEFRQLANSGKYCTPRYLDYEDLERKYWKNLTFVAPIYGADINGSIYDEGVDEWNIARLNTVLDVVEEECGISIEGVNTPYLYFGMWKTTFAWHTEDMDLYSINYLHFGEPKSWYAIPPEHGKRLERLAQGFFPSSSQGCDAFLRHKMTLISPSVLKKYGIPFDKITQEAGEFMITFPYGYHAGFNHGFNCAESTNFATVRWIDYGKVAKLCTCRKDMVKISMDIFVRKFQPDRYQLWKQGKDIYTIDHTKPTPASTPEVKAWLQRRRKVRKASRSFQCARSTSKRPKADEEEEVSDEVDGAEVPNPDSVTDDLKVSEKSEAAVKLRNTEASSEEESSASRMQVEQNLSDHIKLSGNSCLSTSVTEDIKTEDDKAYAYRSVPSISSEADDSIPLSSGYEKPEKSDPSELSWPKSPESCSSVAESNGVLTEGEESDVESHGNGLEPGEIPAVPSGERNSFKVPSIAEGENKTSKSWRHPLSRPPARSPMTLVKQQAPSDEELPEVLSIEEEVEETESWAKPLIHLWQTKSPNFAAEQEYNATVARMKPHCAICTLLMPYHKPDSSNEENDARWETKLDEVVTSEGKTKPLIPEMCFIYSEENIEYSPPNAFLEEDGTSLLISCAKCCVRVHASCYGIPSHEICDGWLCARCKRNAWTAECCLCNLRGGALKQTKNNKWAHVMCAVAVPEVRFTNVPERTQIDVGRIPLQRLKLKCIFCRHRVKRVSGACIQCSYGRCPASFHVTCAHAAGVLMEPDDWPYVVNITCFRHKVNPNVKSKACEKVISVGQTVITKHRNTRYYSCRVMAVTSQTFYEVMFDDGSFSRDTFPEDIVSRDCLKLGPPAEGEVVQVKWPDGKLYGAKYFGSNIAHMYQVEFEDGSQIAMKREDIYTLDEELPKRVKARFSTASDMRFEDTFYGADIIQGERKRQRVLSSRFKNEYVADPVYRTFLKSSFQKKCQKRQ
Chain of G-protein coupled receptor 55 (Q9Y2T6 whole entry): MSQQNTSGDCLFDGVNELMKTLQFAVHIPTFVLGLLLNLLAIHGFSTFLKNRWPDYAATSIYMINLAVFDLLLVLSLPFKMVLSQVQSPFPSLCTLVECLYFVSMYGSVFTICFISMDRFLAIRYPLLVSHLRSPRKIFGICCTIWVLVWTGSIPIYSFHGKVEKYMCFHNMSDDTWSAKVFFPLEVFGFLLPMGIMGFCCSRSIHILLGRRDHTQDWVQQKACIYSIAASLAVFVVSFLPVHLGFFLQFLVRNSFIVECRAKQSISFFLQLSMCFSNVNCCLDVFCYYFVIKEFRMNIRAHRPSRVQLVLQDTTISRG
Chain of Cytochrome P450 2C19 (P33261 whole entry): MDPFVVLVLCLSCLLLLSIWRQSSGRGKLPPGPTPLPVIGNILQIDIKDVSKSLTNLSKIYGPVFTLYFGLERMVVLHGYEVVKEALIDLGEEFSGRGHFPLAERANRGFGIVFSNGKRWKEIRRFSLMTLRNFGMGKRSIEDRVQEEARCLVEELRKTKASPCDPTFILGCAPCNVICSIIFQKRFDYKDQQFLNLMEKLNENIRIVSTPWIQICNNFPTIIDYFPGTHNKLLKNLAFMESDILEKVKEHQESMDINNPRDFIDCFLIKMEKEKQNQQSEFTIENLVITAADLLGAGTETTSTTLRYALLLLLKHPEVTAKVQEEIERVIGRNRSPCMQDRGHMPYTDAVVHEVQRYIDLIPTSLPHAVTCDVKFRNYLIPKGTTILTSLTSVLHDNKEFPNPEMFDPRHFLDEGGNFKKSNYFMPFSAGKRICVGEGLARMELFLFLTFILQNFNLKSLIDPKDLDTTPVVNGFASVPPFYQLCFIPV
Chain of Sphingosine 1-phosphate receptor 4 (O95977 whole entry): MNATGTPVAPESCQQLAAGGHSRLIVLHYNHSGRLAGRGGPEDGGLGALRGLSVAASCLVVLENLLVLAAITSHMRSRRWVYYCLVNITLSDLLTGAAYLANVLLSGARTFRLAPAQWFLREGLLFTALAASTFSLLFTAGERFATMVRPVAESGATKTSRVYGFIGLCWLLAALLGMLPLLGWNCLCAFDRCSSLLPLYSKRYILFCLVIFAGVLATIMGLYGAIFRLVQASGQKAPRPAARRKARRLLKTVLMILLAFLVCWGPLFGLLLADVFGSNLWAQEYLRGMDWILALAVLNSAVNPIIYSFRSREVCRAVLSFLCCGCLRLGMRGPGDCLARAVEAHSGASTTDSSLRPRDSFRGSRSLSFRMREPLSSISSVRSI

Consider `O=C(c1ccco1)N1CCN(c2nc(C3CC3)nc3sc4c(c23)CCCC4)CC1`, for which the IC50 is 1.74 µM (active) in [1], > 32 µM (inactive) on Cannabinoid receptor 1 [2], > 32 µM (inactive) in [3] and > 32 µM (inactive) at Cannabinoid receptor 2 [8]. Besides, the EC50 on Cannabinoid receptor 2 [4] is > 32 µM (inactive); at Protein RecA, 29.6 µM (active); in [6], > 32 µM (inactive); on Cannabinoid receptor 1 [7], > 32 µM (inactive). For the same compound, the AC50 in series [5] is 2.35 µM (active).
As for `C=CCN1C(=O)NC(=O)/C(=C/c2ccc(OC)c(CSc3ccccn3)c2)C1=O`, the AC50 in series [9] was 40.1 µM (active). Besides, the EC50 in [10] and in [11] was > 300 µM (not active) throughout.
Consider `Cc1sc(NC(=O)c2ccc(OCC(C)C)cc2)c(C(N)=O)c1-c1ccc(Cl)cc1Cl`, for which the figures for the AC50 entry on Cytochrome P450 3A4 and on Cytochrome P450 2C19 were “inconclusive” and 1.78 µM (inconclusive), respectively. The EC50 in series [12] is 48.2 µM (active); in series [13], 18.5 µM (active).
Regarding `CC(C)C[C@H](NC(=O)c1[nH]cnc1C(=O)NCc1ccccc1)C(=O)OCc1ccccc1`, the EC50 in [14] was 3.55 µM (active); on Streptokinase A, > 150 µM (not active); in the series on Streptococcus, 20.5 µM (active); in [15] it was 14.4 µM (not active); in [16], > 49.8 µM (inactive).

One may read the IC50 as the concentration needed to halve the response being measured. What is called EC50 is the concentration at which the effect is half-maximal. By AC50 is commonly meant the midpoint of the concentration-response curve, whichever way the signal moves.
